Where two headings read alike, the source gives them in different places.

The data set in a line: Saline solubility at 1.00 mg/mL and 0.50 mg/mL (with pH by indicator paper). In kind it is physicochemical. The settings on record: for pH at 1.00 mg/mL of MGCD290 in saline: final concentration of hydroxamate 1 1.00 mg/mL, pH indicator paper; for solubility at 1 h: saline or isotonic, thermodynamic from solid, centrifuged, soluble = no precipitate formed. How it is done:
Assays were performed to determine the saline solubility at 1.00 and 0.50 mg/ml and the stability of certain of the prodrug compounds of Examples 1-111. The following procedures were used.
Step 1. Sample preparation. An amount of the compound sample was precisely weighed to correspond to around 5 mg of the hydroxamate of compound 1, taking into account the mass of the leaving group and the salt factor if applicable. The sample was placed in a 16×125 mm glass screw cap tube. Saline was added so that the final concentration of hydroxamate 1 was 1.00 mg/mL. The pH was measured with pH indicator paper. The tube was shaken for 1 hour on a Vortex apparatus then centrifuged at 3000 rpm (1800 rcf) for 5 minutes. If the compound example was soluble (no precipitate formed) the procedure continued to step 2. If a precipitate formed then the sample was diluted with saline so that the final concentration of the hydroxamate of compound 1 was 0.50 mg/mL, and the shaking and centrifuging steps were repeated. If the compound example was soluble (no precipitate formed) the procedure continued to step 2. If a precipitate formed the sample was discarded. Step 2. HPLC analysis. A 500 μL aliquot of a sample solution prepared according to Step 1 was taken up into a 1.5 mL injection vial to which was added 500 μL of saline. The vial was shaken on a Vortex apparatus, injected into the HPLC instrument (UV detection, zero time point) and the retention time and purity of the sample compound were determined. The injection was repeated after 6 hours and 24 hours, and a comparison was made of the retention time, peak areas and level of degradation (if any) using the GDADI50 method.

Setting [1] is: 1.00 mg/mL as hydroxamate 1, shaken 1 hour, read-out: Soluble at 1.00 mg/mL of MGCD290 (Y/N).
Setting [2] is: 0.50 mg/mL as hydroxamate 1, shaken 1 hour, read-out: Soluble at 0.5 mg/mL of MGCD290 (Y/N).

For the compound `COCCOCCOCC(=O)NCCN(CC(=O)NCCCC(=O)ONC(=O)Cc1ccc(CCCCc2ccccc2)cc1)C(=O)COCCOCCOC` [Compound 134, 2-(2-(2-Methoxyethoxyl)ethoxy)-N-(2-oxo-2-(4-oxo-4-(2-(4-(4-phenylbutyl)phenyl)acetamidooxy)butylamino)ethyl)-N-(10-oxo-2,5,8-trioxa-11-azatridecan-13-yl)acetamide], the “pH at 1.00 mg/mL of MGCD290 in saline” value is reported as 5.5-6. In addition, the solubility at 1 h under setting [1] is above 1000 µg/mL.
Take `COCCOCCOCC(=O)NCCN(CC(=O)NCCC(=O)ONC(=O)Cc1ccc(CCCCc2ccccc2)cc1)C(=O)COCCOCCOC` [Compound 136]: the “pH at 1.00 mg/mL of MGCD290 in saline” value is given as 5.5-6. Moreover, under setting [2], the solubility at 1 h is below 500 µg/mL. In addition, the solubility at 1 h under setting [1] was below 1000 µg/mL.
In the case of `COCCOCCOCC(=O)NCCCC[C@H](N)C(=O)NCCC(=O)ONC(=O)Cc1ccc(CCCCc2ccccc2)cc1.Cl` [Compound 142, (S)-2-Amino-6-(2-(2-(2-methoxyethoxy)ethoxy)acetamido)-N-(3-oxo-3-(2-(4-(4-phenylbutyl)phenyl)acetamidooxy)propyl) hexanamide hydrochloride], the “pH at 1.00 mg/mL of MGCD290 in saline” value is reported as 5-5.5. Further, the solubility at 1 h under setting [1] is above 1000 µg/mL.
For `COCCOCCOCC(=O)NC[C@H](NC(=O)COCCOCCOC)C(=O)NCCC(=O)ONC(=O)Cc1ccc(CCCCc2ccccc2)cc1` [Compound 143], the “pH at 1.00 mg/mL of MGCD290 in saline” value is given as 4.5-5. Moreover, the solubility at 1 h under setting [2] is below 500 µg/mL. Moreover, under setting [1], the solubility at 1 h is below 1000 µg/mL.
As for `COCCC(=O)NC[C@H](NC(=O)CCOC)C(=O)NCCC(=O)ONC(=O)Cc1ccc(CCCCc2ccccc2)cc1` [Compound 144], the “pH at 1.00 mg/mL of MGCD290 in saline” value is recorded as 4.5-5. Moreover, under setting [2], the solubility at 1 h was below 500 µg/mL. For the same compound, under setting [1], the solubility at 1 h is below 1000 µg/mL.
On to `COCCOCC(=O)NC[C@H](NC(=O)COCCOC)C(=O)NCCC(=O)ONC(=O)Cc1ccc(CCCCc2ccccc2)cc1` [Compound 145], for which the “pH at 1.00 mg/mL of MGCD290 in saline” value is on record as 4.5-5. In addition, under setting [2], the solubility at 1 h was below 500 µg/mL. In addition, under setting [1], the solubility at 1 h is below 1000 µg/mL.
The matching figures for `CC(=O)OCC(=O)NC[C@H](NC(=O)COC(C)=O)C(=O)NCCC(=O)ONC(=O)Cc1ccc(CCCCc2ccccc2)cc1` [Compound 146]: 4.5-5, below 500 µg/mL and below 1000 µg/mL.
Turning to `COCCOCCOCC(=O)NCC[C@H](NC(=O)COCCOCCOC)C(=O)NCCC(=O)ONC(=O)Cc1ccc(CCCCc2ccccc2)cc1` [Compound 147], the “pH at 1.00 mg/mL of MGCD290 in saline” value is reported as 4.5-5. For the same compound, the solubility at 1 h under setting [2] was below 500 µg/mL. Under setting [1], the solubility at 1 h is below 1000 µg/mL.
In the case of `COCCC(=O)NCCCC[C@H](NC(=O)CCOC)C(=O)NCCC(=O)ONC(=O)Cc1ccc(CCCCc2ccccc2)cc1` [Compound 148], the “pH at 1.00 mg/mL of MGCD290 in saline” value was 4.5-5. For the same compound, the solubility at 1 h under setting [2] is below 500 µg/mL. Also, under setting [1], the solubility at 1 h is below 1000 µg/mL.
As to `COCCOCCOCCOCCOCC(=O)NCC[C@H](NC(=O)COCCOCCOCCOCCOC)C(=O)NCCC(=O)ONC(=O)Cc1ccc(CCCCc2ccccc2)cc1` [Compound 149], the “pH at 1.00 mg/mL of MGCD290 in saline” value is 4.5-5. For the same compound, under setting [2], the solubility at 1 h is below 500 µg/mL. For the same compound, under setting [1], the solubility at 1 h is below 1000 µg/mL.
For `COCCOCCOCCOCCOCCOCC(=O)NCC[C@H](NC(=O)COCCOCCOCCOCCOCCOC)C(=O)NCCC(=O)ONC(=O)Cc1ccc(CCCCc2ccccc2)cc1` [Compound 150], the “pH at 1.00 mg/mL of MGCD290 in saline” value is 4.5-5. Moreover, the solubility at 1 h under setting [2] is below 500 µg/mL. The solubility at 1 h under setting [1] was below 1000 µg/mL.
With `CC(=O)OCC(=O)NCC[C@H](NC(=O)COC(C)=O)C(=O)NCCC(=O)ONC(=O)Cc1ccc(CCCCc2ccccc2)cc1` [Compound 151], the “pH at 1.00 mg/mL of MGCD290 in saline” value is 4.5-5. Also, under setting [2], the solubility at 1 h was below 500 µg/mL. In addition, under setting [1], the solubility at 1 h was below 1000 µg/mL.
Turning to `COCCC(=O)NCC[C@H](NC(=O)CCOC)C(=O)NCCC(=O)ONC(=O)Cc1ccc(CCCCc2ccccc2)cc1` [Compound 152], the “pH at 1.00 mg/mL of MGCD290 in saline” value is on record as 4.5-5. Further, the solubility at 1 h under setting [2] was below 500 µg/mL. In addition, the solubility at 1 h under setting [1] was below 1000 µg/mL.

These data come from patent publication US20150203517A1, “Prodrugs of Compounds that Enhance Antifungal Activity and Compositions of Said Prodrugs” (priority 2014, published 2015).
